Laboratory results reported in paper PMC4340794, “Pharmacokinetic Study of 14-(3-Methylbenzyl)matrine and 14-(4-Methylbenzyl)matrine in Rat Plasma Using Liquid Chromatography-Tandem Mass Spectrometry” (PLoS ONE, 2015).

What was measured:
[1] = PK study using rats, oral administration, plasma levels by HPLC-MS/MS; format: in vivo, Sprague–Dawley rats; conditions: oral (gavage) 25 mg/kg, mean ± SD; for Tmax / AUC(0-t) / Cmax / half-life / k el / MRT last: Sprague-Dawley; for Tmax / AUC(0-t): rat, plasma, po, 25 mg/kg; for Cmax / half-life / k el / MRT last / CL / V: rat plasma; for k el: read-out: Ke (converted); for MRT last: read-out: MRT0−t (converted)
Protocol: HPLC analysis was performed using the Dionex UltiMate 3000 HPLC equipped with a binary pump, an on-line degasser, an auto-sampler and a column temperature controller. The chromatographic separations were performed using a Hypersil GOLD C18 column (100 mm × 2.1 mm, 1.9 μm particle size) protected by a C18 guard column (10 mm × 2.1 mm, 5 μm) at 40°C. The mobile phase consisted of acetonitrile:0.1% formic acid (65:35, v/v). The flow rate was set at 0.2 ml/min. Aliquots of 2 μl were injected into the HPLC system for analysis.
MS analysis was performed using a Thermo Scientific TSQ Quantum Access MAX triple-stage quadrupole mass spectrometer equipped with an electrospray ionization (ESI) source in the positive-ionization mode. The typical ion source parameters were as follows: spray voltage: 3500 V; sheath gas pressure (N2): 20 units; auxiliary gas pressure (N2): 5 units; ion transfer tube temperature: 350°C; collision gas (Ar): 1.5 mTorr; Q1/Q3 peak resolution: 0.7 Da; and scan width: 0.002 Da. The samples were analyzed via selective-reaction monitoring (SRM) of the ion pairs at m/z 343 → 148 for 3MBM, m/z 343 → 148 for 4MBM, or m/z 166 → 133 for the IS. The scan dwell time was set at 0.1 s for every channel. All data collected in the centroid mode were acquired and processed using Xcalibur 2.2 software (Thermo Fisher Scientific, Inc., USA).
Each plasma sample (100 μl) was mixed with 20 μl of the working IS solution in a 1.5-ml labeled microcentrifuge tube and was vortexed for 5 s. Then, 1000 μl of isopropanol:ethyl acetate (v/v, 25:75) was added, and each sample was vortexed for 1 min. Each tube was subsequently centrifuged at 12,000 × g for 10 min. The organic layer was transferred to another tube and evaporated to dryness at ambient temperature under a gentle stream of nitrogen. The residue was reconstituted in 100 μl of the mobile phase, and 2 μl of each sample was injected into the HPLC–MS/MS system for analysis.
Aqueous solutions of 3MBM and 4MBM were separately administered to 12 rats via gavage at 25 mg/kg (2.5 mg/ml aqueous solutions), which was equivalent to the dose administered to mice in our previous study. Serial blood samples (0.5 ml) were obtained at 0, 15, 30, 45, 60, 90, 120, 150, 240, 600, 960, and 1440 min after oral administration. All samples were placed in heparinized tubes. After centrifugation at 12,000 rpm and 4°C for 10 min, the plasma was collected and frozen at −20°C until analysis. The PK parameters were estimated according to a non-compartmental model using the TopFit 2.0 software package (Thomae, Germany). The elimination half-life (t1/2) was 0.693/ke, where ke, the elimination rate constant, was calculated by fitting the mean data at four terminal points of the plasma concentration profile to a log-linear regression equation using the least-squares method. The maximum drug plasma concentration (Cmax) and time to Cmax (Tmax) were directly determined from the observed data. The area under the plasma concentration–time curve from zero to the time of the final measurable sample (AUC0−t) was calculated using the linear-trapezoidal rule.

[2] = Stability of analytes in rat plasma samples (post-preparative, freeze–thaw, long-term cold storage); format: in vitro ADME; conditions: for Stability III R.E. / Stability III Concentration / Stability II R.E. / Stability II Concentration: plasma; for Stability III R.E. / Stability III Concentration: 60 days at -20° C; for Stability III Concentration / Stability II Concentration / Stability I Concentration: n = 6, mean ± SD; for Stability II R.E. / Stability II Concentration: three freeze-thaw cycles; for Stability I R.E. / Stability I Concentration: processed samples, auto-sampler 24 h
Protocol: Selectivity was assessed by comparing the chromatograms of six different batches of blank rat plasma to the corresponding spiked rat plasma. Linearity was assessed via weighted (1/x^2) analysis of the six different calibration curves. Intra- and inter-day precision (the relative standard deviation, RSD) and accuracy (the relative error, RE) were determined by analyzing the low-, intermediate-, and high-concentration QC samples (n = 6) on three different days. The matrix effect was investigated by comparing the peak areas of the analytes in the post-extraction spiked blank plasma samples at low and high analyte concentrations to the corresponding standard solutions. The extraction yield was determined by comparing the mean peak areas of the six extracted samples at low, intermediate, and high QC concentrations to the mean peak areas of the spike-after-extraction samples. Stability was assessed by analyzing the replicates (n = 6) of the low, intermediate and high QC samples during the sample storage and processing procedures. Freeze–thaw stability was determined after three freeze–thaw cycles. Post-preparation stability was estimated by analyzing the QC samples after 24 h at 4°C. Six aliquots of the QC samples were stored at −20°C for 60 days to determine their long-term stability.

[3] = system: hepatoma; design: method as in earlier work; conditions: cited from earlier work; for tumor inhibition rate: previous pharmacological experiment

Cc1cccc(CC2CCC3C4CCCN5CCCC(CN3C2=O)C45)c1 (stereo not drawn) [3MBM, 14-(3-methylbenzyl)matrine]
Tmax [1]: 1.47 h | AUC(0-t) ([1]; first AUC0-t line of Table 3): 7210 ng·h/mL | AUC(0-t) ([1]; second AUC0-t line of Table 3): 7480 ng·h/mL | Cmax [1]: 1050 ± 233 ng/mL | half-life [1]: 298 ± 35 min | k el [1]: 3.92e-05 s⁻¹ | MRT last [1]: 7.4 h | CL [1]: 59 ± 13 mL/min | V [1]: 25119 ± 5779 mL | Stability III R.E. ([2]; spike 5 ng/ml): -3.80% | Stability III Concentration ([2]; spike 5 ng/ml): 4.81 ± 0.42 ng/mL | Stability II R.E. ([2]; spike 5 ng/ml): 2.87% | Stability II Concentration ([2]; spike 5 ng/ml): 5.15 ± 0.35 ng/mL | Stability I R.E. ([2]; spike 5 ng/ml): -1.02% | Stability I Concentration ([2]; spike 5 ng/ml): 4.94 ± 0.46 ng/mL | Stability III R.E. ([2]; spike 800 ng/ml): 1.22% | Stability III Concentration ([2]; spike 800 ng/ml): 809.8 ± 30.9 ng/mL | Stability II R.E. ([2]; spike 800 ng/ml): -1.82% | Stability II Concentration ([2]; spike 800 ng/ml): 785.4 ± 46.8 ng/mL | Stability I R.E. ([2]; spike 800 ng/ml): -1.03% | Stability I Concentration ([2]; spike 800 ng/ml): 791.7 ± 13.6 ng/mL | Stability III R.E. ([2]; spike 1600 ng/ml): 3.78% | Stability III Concentration ([2]; spike 1600 ng/ml): 1660 ± 63.9 ng/mL | Stability II R.E. ([2]; spike 1600 ng/ml): 2.46% | Stability II Concentration ([2]; spike 1600 ng/ml): 1639 ± 98.5 ng/mL | Stability I R.E. ([2]; spike 1600 ng/ml): -0.40% | Stability I Concentration ([2]; spike 1600 ng/ml): 1593 ± 39.9 ng/mL | anti-hepatoma activity in vivo ([3]; compared with cyclophosphamide): the same as those of the reference substances of cyclophosphamide | tumor inhibition rate [3]: 61.83%

Cc1ccc(CC2CCC3C4CCCN5CCCC(CN3C2=O)C45)cc1 (stereo not drawn) [4MBM, 14-(4-methylbenzyl)matrine]
Tmax [1]: ~1.58 h | AUC(0-t) ([1]; first AUC0-t line of Table 3): 7680 ng·h/mL | AUC(0-t) ([1]; second AUC0-t line of Table 3): 7920 ng·h/mL | Cmax [1]: 992 ± 275 ng/mL | half-life [1]: 295 ± 22 min | k el [1]: 3.94e-05 s⁻¹ | MRT last [1]: 7.67 h | CL [1]: 59 ± 21 mL/min | V [1]: 24361 ± 6921 mL | Stability III R.E. ([2]; spike 5 ng/ml): 2.60% | Stability III Concentration ([2]; spike 5 ng/ml): 5.13 ± 0.37 ng/mL | Stability II Concentration ([2]; spike 5 ng/ml): 4.98 ± 0.23 ng/mL | Stability I R.E. ([2]; spike 5 ng/ml): 3.20% | Stability I Concentration ([2]; spike 5 ng/ml): 5.16 ± 0.29 ng/mL | Stability III R.E. ([2]; spike 800 ng/ml): -1.58% | Stability III Concentration ([2]; spike 800 ng/ml): 787.4 ± 24.1 ng/mL | Stability II R.E. ([2]; spike 800 ng/ml): -1.30% | Stability II Concentration ([2]; spike 800 ng/ml): 789.6 ± 67.9 ng/mL | Stability I R.E. ([2]; spike 800 ng/ml): 3.11% | Stability I Concentration ([2]; spike 800 ng/ml): 824.9 ± 37.2 ng/mL | Stability III R.E. ([2]; spike 1600 ng/ml): 2.23% | Stability III Concentration ([2]; spike 1600 ng/ml): 1636 ± 36.6 ng/mL | Stability II R.E. ([2]; spike 1600 ng/ml): -1.04% | Stability II Concentration ([2]; spike 1600 ng/ml): 1583 ± 99.2 ng/mL | Stability I R.E. ([2]; spike 1600 ng/ml): -1.42% | Stability I Concentration ([2]; spike 1600 ng/ml): 1577 ± 60.7 ng/mL | tumor inhibition rate [3]: 51.15%

O=C1CCC[C@@H]2[C@H]3CCCN4CCC[C@@H](CN12)[C@@H]34 [MT, Matrine]
tumor inhibition rate [3]: 39.69%
